{"source": "patent US4719214A", "about": "“Carbocyclic analogues of thymine nucleosides” (priority 1985, dated 1988)", "key": {"[1]": {"test_system": "Herpes Simplex Virus Type 1, Strain 377", "assay": "Antiviral activity vs. herpes simplex virus type 1 replicating in Vero cells (virus-induced cytopathogenic effects)", "type": "cell-based", "conditions": "for antiviral activity vs. HSV-1 (in words): HSV-1, Table 1 summary; for Virus rating (VR): 0.5-0.9 marginal to moderate, >=1 definite antiviral activity; for EC50: Human alphaherpesvirus 1, Vero, read-out: MIC50 (minimum inhibitory concentration, 50%)", "experimental": "(§1) The MIC50 (minimum inhibitory concentration, 50%) is the concentration of a test compound required for 50% inhibition of virus-induced cytopathogenic effects.\n(§2) ^a Antiviral evaluations were performed with HSV1 or HSV2 replicating"}, "[2]": {"test_system": "Herpes Simplex Virus Type 2, Strain MS", "assay": "Antiviral activity vs. herpes simplex virus type 2 replicating in Vero cells (virus-induced cytopathogenic effects)", "type": "cell-based", "conditions": "for Virus rating (VR): 0.5-0.9 marginal to moderate, >=1 definite antiviral activity; for EC50: Human alphaherpesvirus 2, Vero, read-out: MIC50 (minimum inhibitory concentration, 50%); for antiviral activity vs. HSV-2 (in words): HSV-2, Table 1 summary", "experimental": "as §1, §2"}, "[3]": {"test_system": "thymidine phosphorylase", "conditions": "isolated from human blood platelets; cited from earlier work"}, "[4]": {"conditions": "rats; cited from earlier work"}, "[5]": {"conditions": "listed as carbocyclic analogue of 5-ethynyl-2'-deoxyuridine"}, "[6]": {"conditions": "HSV-2 strain MS, Vero cells, 50% inhibition of virus-induced cytopathogenic effects"}, "[7]": {"conditions": "HSV-1 strain 377, Vero cells, 50% inhibition of virus-induced cytopathogenic effects"}}, "note": "Several values for one entry are separate records, joined by “and”; a condition that tells them apart may be missing. Identical values can stand only once. Entries after “also recorded” stand apart in the source; their conditions may differ. Like-named read-outs stand apart in the source and are kept apart here.", "data": [{"smiles": "C[Si](C)(C)CCc1cn([C@@H]2C[C@H](CO)[C@@H](O)C2)c(=O)[nH]c1=O", "note": "(relative stereo) [Example 7, 1-[(1α,3β,4α)-3-Hydroxy-4-(hydroxymethyl)cyclopentyl]-5-[2-(trimethylsilyl)ethyl]-2,4(1H,3H)-pyrimidinedione]", "values": [{"measurement": "antiviral activity vs. HSV-1 (in words)", "setting": "[1]", "value": "antiviral activity"}, {"measurement": "antiviral activity vs. HSV-1 (in words)", "setting": "[1]; listed as carbocyclic analogue of 5-trimethylsilylethyl-2'-deoxyuridine", "value": "activity against HSV-1"}, {"measurement": "Virus rating (VR)", "setting": "[1]; HSV-1 strain 377, Vero cells", "value": 0.5}, {"measurement": "EC50", "setting": "[1]", "value": 320, "unit": "µg/mL"}]}, {"smiles": "Nc1ncnc2c1ncn2[C@@H]1O[C@H](CO)[C@@H](O)[C@@H]1O", "note": "[Ara-A, 9-β-D-arabinofuranosyladenine, reference compound]", "values": [{"measurement": "Virus rating (VR)", "setting": "[2]; HSV-2 strain MS, Vero cells", "value": "1.3-1.7"}, {"measurement": "EC50", "setting": "[2]", "value": "22 to 45", "unit": "µg/mL"}, {"measurement": "Virus rating (VR)", "setting": "[1]; HSV-1 strain 377, Vero cells", "value": "2.0-2.1"}, {"measurement": "EC50", "setting": "[1]", "value": "15 to 19", "unit": "µg/mL"}]}, {"smiles": "C#Cc1cn([C@@H]2C[C@H](CO)[C@@H](O)C2)c(=O)[nH]c1=O", "note": "(relative stereo) [Example 4, 1-[(1α,3β,4α)-3-Hydroxy-4-(hydroxymethyl)cyclopentyl]-5-ethynyl-2,4(1H,3H)-pyrimidinedione]", "values": [{"measurement": "antiviral activity vs. HSV-2 (in words)", "setting": "[2]", "value": "significant antiviral activity"}, {"measurement": "antiviral activity vs. HSV-2 (in words)", "setting": "[2]; [5]", "value": "significant, selective activity"}, {"measurement": "Virus rating (VR)", "setting": "[2]; HSV-2 strain MS, Vero cells", "value": 1.1}, {"measurement": "EC50", "setting": "[2]; [6]", "value": 207, "unit": "µg/mL"}, {"measurement": "antiviral activity vs. HSV-1 (in words)", "setting": "[1]", "value": "significant antiviral activity"}, {"measurement": "antiviral activity vs. HSV-1 (in words)", "setting": "[1]; [5]", "value": "significant, selective activity"}, {"measurement": "Virus rating (VR)", "setting": "[1]; HSV-1 strain 377, Vero cells", "value": 0.9}, {"measurement": "EC50", "setting": "[1]; [7]", "value": 253, "unit": "µg/mL"}]}, {"smiles": "O=c1[nH]c(=O)n([C@H]2C[C@H](O)[C@@H](CO)O2)cc1/C=C/Br", "note": "[BVDU, 5-[(E)-2-(bromovinyl)]-2'-deoxyuridine]", "values": [{"measurement": "substrate for thymidine phosphorylase", "setting": "[3]", "value": "substrates for thymidine phosphorylase"}]}, {"smiles": "CCc1cn([C@@H]2C[C@H](CO)[C@@H](O)C2)c(=O)[nH]c1=O", "note": "(relative stereo) [C-EDU, 5-Ethyl-1-[(1α,3β,4α)-3-Hydroxy-4-(hydroxymethyl)cyclopentyl]-2,4(1H,3H)-pyrimidinedione]", "values": [{"measurement": "antiviral activity vs. HSV-2 (in words)", "setting": "[2]", "value": "comparable to those of 9-β-D-arabinofuranosyladenine (Ara-A); also recorded: definite and significant activity against HSV-2; also recorded: inhibits the replication"}, {"measurement": "Virus rating (VR)", "setting": "[2]; HSV-2 strain MS, Vero cells", "value": 1.1}, {"measurement": "MIC50 (minimum inhibitory concentration, 50%)", "setting": "[2]; [6]", "value": 178, "unit": "µg/mL"}, {"measurement": "EC50", "setting": "[2]; [6]", "value": 227, "unit": "µg/mL"}, {"measurement": "antiviral activity vs. HSV-1 (in words)", "setting": "[1]", "value": "comparable to those of 9-β-D-arabinofuranosyladenine (Ara-A); also recorded: as active vs. HSV-1 as is the corresponding true nucleoside, 5-ethyl-2'-deoxyuridine (EDU); also recorded: inhibits the replication"}, {"measurement": "Virus rating (VR)", "setting": "[1]; HSV-1 strain 377, Vero cells", "value": "2.4 and 2.1"}, {"measurement": "MIC50 (minimum inhibitory concentration, 50%)", "setting": "[1]; [7]", "value": 69, "unit": "µg/mL"}, {"measurement": "EC50", "setting": "[1]; [7]", "value": 45, "unit": "µg/mL"}]}, {"smiles": "CCc1cn([C@H]2C[C@H](O)[C@@H](CO)O2)c(=O)[nH]c1=O", "note": "[EDU, 5-ethyl-2'-deoxyuridine, reference compound]", "values": [{"measurement": "Virus rating (VR)", "setting": "[2]; HSV-2 strain MS, Vero cells", "value": 2.2}, {"measurement": "EC50", "setting": "[2]", "value": 321, "unit": "µg/mL"}, {"measurement": "cleavage products identified as metabolites", "setting": "[4]", "value": "5-ethyluracil and 5-(2-hydroxyethyl)uracil"}, {"measurement": "substrate for thymidine phosphorylase", "setting": "[3]", "value": "substrates for thymidine phosphorylase"}, {"measurement": "Virus rating (VR)", "setting": "[1]; HSV-1 strain 377, Vero cells", "value": 2.3}, {"measurement": "EC50", "setting": "[1]", "value": 19, "unit": "µg/mL"}]}]}
